In ChEMBL document CHEMBL5465560, “Selectivity Literature for EUbOPEN Chemogenomic Library” (2024):

Assays:
[1] = biological target: Casein kinase I isoform gamma-1 (Homo sapiens) (UniProt Q9HCP0); assay: Selectivity interaction (SelectScreen profiling (Invitrogen)) EUB0000607a CSNK1G1; conditions: at 2 µM
[2] = biological target: Serine/threonine-protein kinase Nek6 (Homo sapiens) (UniProt Q9HC98); assay: Selectivity interaction (Kinase panel (Invitrogen)) EUB0000639a NEK6; conditions: at 200 nM
[3] = biological target: T1, Serine/threonine-protein kinase ULK3 (Homo sapiens) (UniProt Q6PHR2); assay: Selectivity interaction (ActivX KiNativ screen (kinase selectivity in THP-1 cell lysates)) EUB0000639a ULK3; format: subcellular; conditions: lysate, at 5 µM
T1 sequence (whole entry): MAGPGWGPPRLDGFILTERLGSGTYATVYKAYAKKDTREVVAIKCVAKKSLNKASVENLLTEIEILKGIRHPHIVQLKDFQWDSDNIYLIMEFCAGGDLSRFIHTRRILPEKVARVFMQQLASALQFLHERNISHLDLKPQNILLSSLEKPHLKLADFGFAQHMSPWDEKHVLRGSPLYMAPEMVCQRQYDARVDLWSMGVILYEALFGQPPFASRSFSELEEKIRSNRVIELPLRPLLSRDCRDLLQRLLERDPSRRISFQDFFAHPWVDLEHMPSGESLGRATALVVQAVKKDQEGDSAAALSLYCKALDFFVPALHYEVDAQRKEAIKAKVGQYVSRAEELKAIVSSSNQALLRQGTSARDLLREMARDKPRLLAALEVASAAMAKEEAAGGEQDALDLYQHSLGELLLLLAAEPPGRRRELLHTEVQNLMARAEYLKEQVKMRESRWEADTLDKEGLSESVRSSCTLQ

[4] = biological target: T2, Beta-adrenergic receptor kinase 1 (Homo sapiens) (UniProt P25098); assay: Selectivity interaction (ProQinase) EUB0000171b ADRBK1
T2 sequence (whole entry): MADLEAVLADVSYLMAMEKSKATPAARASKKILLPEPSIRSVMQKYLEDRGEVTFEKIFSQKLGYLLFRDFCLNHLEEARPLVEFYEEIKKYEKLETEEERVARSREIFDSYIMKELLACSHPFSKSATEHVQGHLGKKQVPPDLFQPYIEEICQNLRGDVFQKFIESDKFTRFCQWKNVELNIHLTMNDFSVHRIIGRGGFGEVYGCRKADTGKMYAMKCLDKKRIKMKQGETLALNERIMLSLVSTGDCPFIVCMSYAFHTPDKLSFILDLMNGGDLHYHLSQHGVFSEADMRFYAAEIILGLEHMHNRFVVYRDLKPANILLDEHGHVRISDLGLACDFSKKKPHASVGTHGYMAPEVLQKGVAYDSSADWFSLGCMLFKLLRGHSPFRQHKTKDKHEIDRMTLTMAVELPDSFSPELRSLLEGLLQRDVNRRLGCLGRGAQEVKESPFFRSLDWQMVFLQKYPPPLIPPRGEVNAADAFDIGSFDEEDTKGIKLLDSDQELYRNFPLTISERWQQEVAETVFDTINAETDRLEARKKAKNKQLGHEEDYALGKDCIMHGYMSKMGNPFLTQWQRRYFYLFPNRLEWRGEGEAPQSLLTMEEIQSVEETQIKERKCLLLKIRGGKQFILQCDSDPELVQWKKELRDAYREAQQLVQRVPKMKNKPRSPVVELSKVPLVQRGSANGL

[5] = biological target: Cyclin-dependent kinase 5 (Homo sapiens, UniProt Q00535); assay: Selectivity interaction (KinomeScan (DiscoverX)) EUB0000595a CDK5; conditions: at 10 µM
[6] = biological target: Cyclin-dependent kinase 11B (Homo sapiens) (UniProt P21127); assay: Selectivity interaction (KinomeScan (DiscoverX)) EUB0001049a CDK11B; conditions: at 1 µM
[7] = biological target: T3, Dual specificity tyrosine-phosphorylation-regulated kinase 2 (Homo sapiens) (UniProt Q92630); assay: Selectivity interaction (Ambit KINOMEscan and KiNATiv profiling in Jurkat cells) EUB0000090b DYRK2; format: cell-based; conditions: at 1 µM
T3 sequence (whole entry): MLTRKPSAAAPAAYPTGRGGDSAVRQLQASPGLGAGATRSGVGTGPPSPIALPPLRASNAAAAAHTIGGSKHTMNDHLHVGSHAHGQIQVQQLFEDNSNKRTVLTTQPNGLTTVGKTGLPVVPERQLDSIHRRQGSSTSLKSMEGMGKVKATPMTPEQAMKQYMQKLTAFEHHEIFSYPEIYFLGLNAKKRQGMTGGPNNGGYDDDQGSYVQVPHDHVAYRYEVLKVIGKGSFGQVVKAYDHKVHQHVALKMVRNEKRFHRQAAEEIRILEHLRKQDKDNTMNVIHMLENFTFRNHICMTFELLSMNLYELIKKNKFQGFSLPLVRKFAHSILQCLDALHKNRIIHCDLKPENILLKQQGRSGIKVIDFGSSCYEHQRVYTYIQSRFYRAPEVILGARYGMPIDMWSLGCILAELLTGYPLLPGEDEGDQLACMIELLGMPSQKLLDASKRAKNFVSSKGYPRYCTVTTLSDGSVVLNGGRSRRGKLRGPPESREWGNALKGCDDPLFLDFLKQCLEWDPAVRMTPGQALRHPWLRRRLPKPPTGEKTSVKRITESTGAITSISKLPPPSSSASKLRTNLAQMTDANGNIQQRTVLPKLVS

[8] = biological target: Receptor-type tyrosine-protein kinase FLT3 (Homo sapiens) (UniProt P36888); assay: Selectivity interaction (KinomeScan (DiscoverX)) EUB0000229b FLT3; conditions: at 10 µM
[9] = biological target: Ribosomal protein S6 kinase alpha-5 (Homo sapiens) (UniProt O75582); assay: Selectivity interaction (KinomeScan (DiscoverX)) EUB0000229b RPS6KA5; conditions: at 10 µM
[10] = biological target: Serine/threonine-protein kinase PLK1 (Homo sapiens, UniProt P53350); assay: Selectivity interaction (KinomeScan (DiscoverX)) EUB0001619a PLK1; conditions: at 1 µM
[11] = biological target: Serine/threonine-protein kinase SIK2 (Homo sapiens) (UniProt Q9H0K1); assay: Selectivity interaction (KinomeScan (DiscoverX)) EUB0001619a SIK2; conditions: at 1 µM
Sequence of Serine/threonine-protein kinase SIK2 (Homo sapiens) (Q9H0K1 whole entry, looked up): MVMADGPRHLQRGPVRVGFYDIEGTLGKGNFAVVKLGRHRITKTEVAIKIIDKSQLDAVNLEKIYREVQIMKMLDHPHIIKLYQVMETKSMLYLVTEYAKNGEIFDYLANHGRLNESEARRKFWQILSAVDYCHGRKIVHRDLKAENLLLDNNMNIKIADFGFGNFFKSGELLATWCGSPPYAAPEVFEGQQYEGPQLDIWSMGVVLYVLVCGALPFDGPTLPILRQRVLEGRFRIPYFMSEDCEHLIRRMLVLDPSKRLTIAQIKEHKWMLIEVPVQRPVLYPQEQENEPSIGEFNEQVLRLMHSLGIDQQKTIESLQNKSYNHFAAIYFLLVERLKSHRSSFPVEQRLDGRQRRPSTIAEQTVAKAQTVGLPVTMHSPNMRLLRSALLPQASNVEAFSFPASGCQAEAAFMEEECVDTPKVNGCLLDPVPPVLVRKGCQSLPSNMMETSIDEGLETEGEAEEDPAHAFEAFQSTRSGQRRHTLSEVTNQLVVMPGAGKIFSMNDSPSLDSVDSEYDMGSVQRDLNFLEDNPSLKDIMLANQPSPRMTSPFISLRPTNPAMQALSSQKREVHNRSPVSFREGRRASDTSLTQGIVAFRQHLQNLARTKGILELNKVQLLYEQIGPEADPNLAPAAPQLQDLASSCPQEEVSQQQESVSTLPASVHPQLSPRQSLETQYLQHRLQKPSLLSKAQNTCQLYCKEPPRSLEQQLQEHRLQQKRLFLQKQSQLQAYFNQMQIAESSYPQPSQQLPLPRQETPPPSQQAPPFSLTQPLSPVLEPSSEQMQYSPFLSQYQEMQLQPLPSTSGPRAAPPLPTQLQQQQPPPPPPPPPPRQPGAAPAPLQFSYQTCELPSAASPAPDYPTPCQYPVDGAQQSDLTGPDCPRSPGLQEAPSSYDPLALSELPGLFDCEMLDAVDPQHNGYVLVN

Sequence of Serine/threonine-protein kinase Nek6 (Homo sapiens) (Q9HC98 whole entry): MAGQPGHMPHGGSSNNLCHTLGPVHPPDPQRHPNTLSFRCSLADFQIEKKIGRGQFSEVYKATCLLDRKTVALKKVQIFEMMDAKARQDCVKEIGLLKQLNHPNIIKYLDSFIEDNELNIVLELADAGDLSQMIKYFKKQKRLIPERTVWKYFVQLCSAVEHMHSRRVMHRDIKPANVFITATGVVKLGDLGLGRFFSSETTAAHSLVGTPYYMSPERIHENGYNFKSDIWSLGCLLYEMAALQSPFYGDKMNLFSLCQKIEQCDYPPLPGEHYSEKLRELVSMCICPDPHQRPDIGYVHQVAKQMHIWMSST
Sequence of Ribosomal protein S6 kinase alpha-5 (Homo sapiens) (O75582 whole entry, looked up): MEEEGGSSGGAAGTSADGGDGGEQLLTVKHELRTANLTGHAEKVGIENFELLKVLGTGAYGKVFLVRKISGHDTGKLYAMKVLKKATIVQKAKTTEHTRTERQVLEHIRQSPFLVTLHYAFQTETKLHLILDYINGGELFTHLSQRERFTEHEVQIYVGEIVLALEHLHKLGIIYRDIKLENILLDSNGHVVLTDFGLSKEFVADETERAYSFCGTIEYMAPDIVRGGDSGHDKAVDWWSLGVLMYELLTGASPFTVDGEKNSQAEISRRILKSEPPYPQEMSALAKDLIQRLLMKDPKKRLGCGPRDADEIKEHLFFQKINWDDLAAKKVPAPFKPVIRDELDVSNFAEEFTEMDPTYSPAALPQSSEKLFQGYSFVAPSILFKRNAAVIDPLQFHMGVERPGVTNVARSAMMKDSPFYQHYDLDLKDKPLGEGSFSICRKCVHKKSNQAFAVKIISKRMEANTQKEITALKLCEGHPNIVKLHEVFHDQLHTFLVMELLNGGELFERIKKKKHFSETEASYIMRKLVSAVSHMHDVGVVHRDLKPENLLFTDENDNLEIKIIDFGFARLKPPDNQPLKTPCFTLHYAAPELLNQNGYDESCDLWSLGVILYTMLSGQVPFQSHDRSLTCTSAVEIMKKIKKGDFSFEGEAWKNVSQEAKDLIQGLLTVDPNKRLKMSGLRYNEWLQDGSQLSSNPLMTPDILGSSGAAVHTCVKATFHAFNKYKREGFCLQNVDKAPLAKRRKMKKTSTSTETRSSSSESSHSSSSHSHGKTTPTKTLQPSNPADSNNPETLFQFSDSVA
Sequence of Cyclin-dependent kinase 5 (Q00535 whole entry, looked up): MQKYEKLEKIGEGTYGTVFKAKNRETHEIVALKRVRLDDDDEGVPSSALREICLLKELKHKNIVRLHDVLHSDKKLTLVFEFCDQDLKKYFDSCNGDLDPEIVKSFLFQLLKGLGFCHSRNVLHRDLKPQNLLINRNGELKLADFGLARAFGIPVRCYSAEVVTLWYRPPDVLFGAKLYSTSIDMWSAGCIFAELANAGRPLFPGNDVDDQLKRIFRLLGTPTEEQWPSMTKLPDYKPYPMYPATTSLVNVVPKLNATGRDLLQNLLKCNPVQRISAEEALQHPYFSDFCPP
Sequence of Casein kinase I isoform gamma-1 (Homo sapiens) (Q9HCP0 whole entry, looked up, canonical isoform): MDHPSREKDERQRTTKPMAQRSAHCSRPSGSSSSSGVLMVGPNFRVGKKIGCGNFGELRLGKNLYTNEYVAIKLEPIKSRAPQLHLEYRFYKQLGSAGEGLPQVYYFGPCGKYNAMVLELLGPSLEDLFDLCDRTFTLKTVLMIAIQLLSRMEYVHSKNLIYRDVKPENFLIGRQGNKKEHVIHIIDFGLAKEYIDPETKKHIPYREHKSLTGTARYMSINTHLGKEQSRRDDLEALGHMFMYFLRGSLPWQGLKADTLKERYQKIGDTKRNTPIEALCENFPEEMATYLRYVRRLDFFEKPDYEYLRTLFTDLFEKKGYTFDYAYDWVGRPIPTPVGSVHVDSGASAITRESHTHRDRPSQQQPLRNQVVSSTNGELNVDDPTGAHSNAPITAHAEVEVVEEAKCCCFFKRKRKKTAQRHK
Sequence of Serine/threonine-protein kinase PLK1 (P53350 whole entry): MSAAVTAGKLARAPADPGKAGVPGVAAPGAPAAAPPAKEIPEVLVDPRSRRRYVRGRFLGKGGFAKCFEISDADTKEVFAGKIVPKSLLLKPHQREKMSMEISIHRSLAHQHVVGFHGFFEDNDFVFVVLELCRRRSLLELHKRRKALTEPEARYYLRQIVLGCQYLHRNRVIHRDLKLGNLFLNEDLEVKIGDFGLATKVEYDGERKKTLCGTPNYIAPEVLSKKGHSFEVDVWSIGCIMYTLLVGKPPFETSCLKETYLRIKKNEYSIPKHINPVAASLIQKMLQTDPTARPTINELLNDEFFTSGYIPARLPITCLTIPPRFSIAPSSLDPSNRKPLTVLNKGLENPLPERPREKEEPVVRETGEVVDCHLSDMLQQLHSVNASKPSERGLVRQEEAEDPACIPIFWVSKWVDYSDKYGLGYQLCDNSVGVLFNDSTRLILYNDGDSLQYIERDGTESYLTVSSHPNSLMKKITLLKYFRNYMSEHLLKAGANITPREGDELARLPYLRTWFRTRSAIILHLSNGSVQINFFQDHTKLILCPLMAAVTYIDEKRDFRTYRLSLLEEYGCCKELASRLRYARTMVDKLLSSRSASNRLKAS
Sequence of Receptor-type tyrosine-protein kinase FLT3 (Homo sapiens) (P36888 whole entry): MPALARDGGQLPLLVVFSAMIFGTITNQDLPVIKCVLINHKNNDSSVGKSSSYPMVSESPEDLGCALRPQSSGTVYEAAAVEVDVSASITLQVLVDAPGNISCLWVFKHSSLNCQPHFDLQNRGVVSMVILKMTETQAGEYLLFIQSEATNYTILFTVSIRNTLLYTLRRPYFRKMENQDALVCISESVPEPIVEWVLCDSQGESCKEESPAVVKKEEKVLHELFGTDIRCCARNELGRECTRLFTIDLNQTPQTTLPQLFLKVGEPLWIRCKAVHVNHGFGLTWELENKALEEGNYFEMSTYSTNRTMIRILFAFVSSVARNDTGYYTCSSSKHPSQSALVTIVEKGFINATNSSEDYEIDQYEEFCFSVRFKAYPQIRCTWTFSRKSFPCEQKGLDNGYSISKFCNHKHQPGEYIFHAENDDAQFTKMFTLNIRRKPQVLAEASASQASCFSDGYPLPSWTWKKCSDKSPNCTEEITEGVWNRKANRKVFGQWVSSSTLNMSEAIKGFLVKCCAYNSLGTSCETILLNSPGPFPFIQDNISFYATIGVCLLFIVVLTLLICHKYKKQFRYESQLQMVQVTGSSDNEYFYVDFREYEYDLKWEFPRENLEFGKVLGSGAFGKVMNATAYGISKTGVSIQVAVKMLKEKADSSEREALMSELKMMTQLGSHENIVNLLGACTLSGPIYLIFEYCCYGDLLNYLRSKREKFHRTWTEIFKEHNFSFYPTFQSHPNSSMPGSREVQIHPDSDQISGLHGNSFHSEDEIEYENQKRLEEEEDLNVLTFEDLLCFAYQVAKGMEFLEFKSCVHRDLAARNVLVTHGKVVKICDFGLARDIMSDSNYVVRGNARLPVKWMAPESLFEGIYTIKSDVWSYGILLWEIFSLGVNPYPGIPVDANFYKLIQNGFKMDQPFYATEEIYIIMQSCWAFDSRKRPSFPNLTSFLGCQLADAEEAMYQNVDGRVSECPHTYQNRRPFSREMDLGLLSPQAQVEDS

In the case of `CNC(=O)Nc1ccc(-c2nc(N3CC4CCC(C3)O4)c3cnn(C4CCC5(CC4)OCCO5)c3n2)cc1`, the % of inhibition [1] is reported as -2%.
`CC[C@@H]1[C@H](F)C(=O)N[C@@H]1COc1nccc2cc(C(N)=O)c(OC)cc12` [ZIMLOVISERTIB] gave a % of inhibition [2] of 6.81% and a % of inhibition [3] of -10.2%.
In the case of `C=CC(=O)Nc1cccc(C(=O)Nc2ccc(Nc3cc(-c4[nH]c(SC)nc4C)ccn3)cc2)c1`, the % of control ([4]; at 1 µM) is reported as 101% and the % of control ([4]; at 5 µM) is reported as 88%.
Compound `COCC(=O)NC/C=C/c1ccc2ncnc(Nc3ccc(Oc4ccc(C)nc4)c(C)c3)c2c1` [CP-724714] has a % of control [5] of 100%.
In the case of `COc1cc(Nc2nc(C)cc(-c3cnn4nc(OC)ccc34)n2)cc(C(F)(F)F)c1`, the % of control [6] is reported as 100%.
Work on `CN(C)C/C=C/C(=O)Nc1ccc(C(=O)N2CCCC(Nc3ncc(Cl)c(-c4c[nH]c5ccccc45)n3)C2)cc1` (configuration not stated) yielded a % of control [7] of 7.4%.
For `COc1cc(N(C)c2ccnc3ccc(C(F)(F)F)cc23)cc(OC)c1OC`, the % binding [8] was 85% and the % binding [9] was 85%.
`N#Cc1cccc(-c2c[nH]c3ncnc(N4CCOCC4)c23)c1` was tested, and the % of control [10] was 100% and the % of control [11] was 32%.
